Patent publication US20090149436A1, “CASPASE INHIBITOR” (Astellas Pharma Inc., priority 2004, published 2009)
Where two headings read alike, the source gives them in different places.

Legend:
Format in all cases: biochemical
trypsin = molecular target: T1, trypsin (Bos taurus, UniProt P00760); assay: Enzyme specificity assay, trypsin (substrate Boc-Phe-Ser-Arg-MCA); details: FIG. 2; phosphate buffer pH 5.5
T1 construct: gene PRSS1
T1 sequence (P00760 24-246): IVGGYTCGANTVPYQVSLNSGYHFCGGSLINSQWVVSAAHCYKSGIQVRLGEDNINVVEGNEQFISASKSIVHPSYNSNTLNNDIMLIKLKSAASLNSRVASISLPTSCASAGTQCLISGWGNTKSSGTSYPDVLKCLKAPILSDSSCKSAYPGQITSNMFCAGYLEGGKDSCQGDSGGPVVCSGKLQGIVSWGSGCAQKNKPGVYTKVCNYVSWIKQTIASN
Method: (§1) The above-mentioned compound was assayed for the inhibitory activity using […], cathepsin L and trypsin as enzymes other than caspase 3 and by an assay method similar to the above-mentioned Example 1 using phosphate buffer, pH 5.5 (100 mM NaCl, 5-mM DTT, 4 mM EDTA) as a buffer, Z-Arg-Arg-MNA as a substrate for […], Z-Phe-Arg-MNA as a substrate for cathepsin L, and Boc-Phe-Ser-Arg-MCA as a substrate for trypsin.

cathepsin L = cathepsin L (Homo sapiens, UniProt P07711); assay: Enzyme specificity assay, cathepsin L (substrate Z-Phe-Arg-MNA); details: FIG. 2; phosphate buffer pH 5.5
Method: as §1

[1] = molecular target: T2, human recombinant caspase 3 (Homo sapiens, UniProt P42574); assay: Assay of inhibitory activity against human recombinant caspase 3 (fluorogenic substrate Ac-DEVD-MCA); details: for specificity of the enzyme inhibitory activity (in words): caspase 3 versus cathepsins and trypsin
T2 construct: purchased CALBIOCHEM 235417
T2 sequence (P42574 29-175 limits assumed): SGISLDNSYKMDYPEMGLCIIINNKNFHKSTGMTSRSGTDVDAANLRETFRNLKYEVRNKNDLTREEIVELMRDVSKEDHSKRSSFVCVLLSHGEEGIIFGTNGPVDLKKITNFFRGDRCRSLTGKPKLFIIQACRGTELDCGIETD
T2 sequence (P42574 176-277 limits assumed): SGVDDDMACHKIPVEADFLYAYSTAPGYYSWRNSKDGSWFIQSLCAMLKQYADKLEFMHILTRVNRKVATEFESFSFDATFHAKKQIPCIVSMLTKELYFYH
Method: A reaction buffer containing 10% sucrose, 0.1% CHAPS, 2 mM dithiothreitol in 25 mM HEPES (pH 7.5) is prepared. […] Thereto is added 25 μl of human recombinant caspase 3 (CALBIOCHEM catalog No. 235417), 500 U/ml, to start the reaction. After incubation at room temperature for 2 hr. the reaction quench buffer (0.1 M monochloroacetic acids 0.03 M sodium acetate, 0.15 M acetic acid (pH 4.3)) is added by 100 μl per well. The fluorescence of 7-amino-4-methylcoumarin ([…]) released by the enzyme reaction is measured using a fluorophotometer (Ex. 355 nm, Em. 460 nm).
The compounds of the above-mentioned 1. were examined for the activity inhibitory action on human recombinant caspase 3.

cathepsin B = cathepsin B (Homo sapiens, UniProt P07858); assay: Enzyme specificity assay, cathepsin B (substrate Z-Arg-Arg-MNA); details: FIG. 2; phosphate buffer pH 5.5
Method: as §1

[2] = FIG. 1 lower panel, read-out: IC50, inhibitory activity against human recombinant caspase 3
[3] = FIG. 1 upper panel, read-out: IC50, inhibitory activity against human recombinant caspase 3

Chain of cathepsin L (P07711 114-333, species assumed): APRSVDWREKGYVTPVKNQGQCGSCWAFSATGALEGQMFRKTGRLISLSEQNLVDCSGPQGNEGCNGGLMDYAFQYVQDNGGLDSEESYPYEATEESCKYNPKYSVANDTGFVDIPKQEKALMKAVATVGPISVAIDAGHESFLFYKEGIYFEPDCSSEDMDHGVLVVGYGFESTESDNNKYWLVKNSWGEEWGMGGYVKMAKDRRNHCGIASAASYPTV

| Molecule | IC50 (trypsin) [nM] | IC50 (cathepsin L) [nM] | caspase 3 inhibitory activity (in words) ([1]; FIG. 1, compared with DEVD, standard product) | IC50 [1, 2] [nM] | IC50 [1, 3] [nM] | specificity of the enzyme inhibitory activity (in words) ([1]; FIG. 2) | IC50 ([1]; FIG. 2, read-out: IC50, caspase (Enzyme Specificity)) [nM] | Inhibitory mode against human recombinant caspase 3 (Lineweaver-Burk plot) ([1]; FIG. 3, different substrate concentrations (2, 4, 6 and 8 nM)) | IC50 (cathepsin B) [nM] |
| --- | --- | --- | --- | --- | --- | --- | --- | --- | --- |
| C/C1=C2/[N-]C([C@H](CC(N)=O)[C@@]2(C)CCC(=O)NCC(C)O)[C@]2(C)N=C(/C(C)=C3N=C(/C=C4N=C1[C@@H](CCC(N)=O)C\4(C)C)[C@@H](CCC(N)=O)[C@]\3(C)CC(N)=O)[C@@H](CCC(N)=O)[C@]2(C)CC(N)=O.[C-]#N.[C-]#N.[Co] (some centres unmarked) [dicyanocobinamide] | > 5000 | 6.12 | far stronger than the inhibitory activity of DEVD | 0.142 | 0.28 | strongest inhibitory activity against caspase 3 | 0.28 | competitively inhibits the substrate for caspase 3 | 102 |
| C=CC1=C(C)c2cc3[n-]c(cc4nc(cc5[n-]c(cc1n2)c(C)c5CCC(=O)[O-])C(CCC(=O)[O-])=C4C)c(C)c3C=C.[Co+2].[H+].[H+] [cobalt protoporphyrin] |  |  |  |  | 13.1 |  |  |  |  |
| cyanoimidazolylcobamide |  |  |  | 91.2 |  |  |  |  |  |
| cyanocobalamin [reference compound] |  |  |  | 1760 | 2100 |  |  |  |  |
| CC(=O)N[C@@H](CC(=O)O)C(=O)N[C@@H](CCC(=O)O)C(=O)N[C@H](C(=O)N[C@H](C=O)CC(=O)O)C(C)C [DEVD, acetyl-L-aspartyl-L-glutamyl-L-valyl-L-aspart-1-al, reference compound] | > 100000 | 17400 |  |  |  | strongest inhibitory activity against caspase 3 |  |  | 672 |
